# Measured values published in patent USRE46856E1, “Substituted 2,3-dihydroimidazo[1,2-c]quinazoline derivatives useful for treating hyper-proliferative disorders and diseases associated with angiogenesis” (Bayer Intellectual Property GmbH, priority 2006, dated 2018).
# Where a name gives a salt, the structure may show the parent alone.
# Experiments:
# [1] = test system: IGF-1 induced AKT phosphorylation in A549 cells; assay: IGF-1 induced AKT phosphorylation assay (A549 cell assay); type: cell-based; conditions: Homo sapiens; A549 cells, 25 ng/ml IGF-1, phospho-AKT(Ser 473); read-out: average IC50 in the A549 cell assay
# Procedure, shortened: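 A549 cells stimulated with 25 ng/ml IGF-1 for 10 min at 37 °C, then fixed in formaldehyde/methanol. Phospho-AKT detected by cell ELISA (primary anti-phospho-AKT, HRP secondary, ECL luminescence); IC50 from inhibition curve.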
# [2] = molecular target: T1, PI3Kα (Homo sapiens, UniProt P42336); assay: Solid-phase lipid kinase assay of PI3Kα (p110α assay); type: biochemical; conditions: recombinant truncated human p110α, 10 μM ATP
# T1 construct: His6 (N); made in house; host or cells: S. frugiperda 9 (Sf9) insect cells
# T1 sequence (P42336 109-1068): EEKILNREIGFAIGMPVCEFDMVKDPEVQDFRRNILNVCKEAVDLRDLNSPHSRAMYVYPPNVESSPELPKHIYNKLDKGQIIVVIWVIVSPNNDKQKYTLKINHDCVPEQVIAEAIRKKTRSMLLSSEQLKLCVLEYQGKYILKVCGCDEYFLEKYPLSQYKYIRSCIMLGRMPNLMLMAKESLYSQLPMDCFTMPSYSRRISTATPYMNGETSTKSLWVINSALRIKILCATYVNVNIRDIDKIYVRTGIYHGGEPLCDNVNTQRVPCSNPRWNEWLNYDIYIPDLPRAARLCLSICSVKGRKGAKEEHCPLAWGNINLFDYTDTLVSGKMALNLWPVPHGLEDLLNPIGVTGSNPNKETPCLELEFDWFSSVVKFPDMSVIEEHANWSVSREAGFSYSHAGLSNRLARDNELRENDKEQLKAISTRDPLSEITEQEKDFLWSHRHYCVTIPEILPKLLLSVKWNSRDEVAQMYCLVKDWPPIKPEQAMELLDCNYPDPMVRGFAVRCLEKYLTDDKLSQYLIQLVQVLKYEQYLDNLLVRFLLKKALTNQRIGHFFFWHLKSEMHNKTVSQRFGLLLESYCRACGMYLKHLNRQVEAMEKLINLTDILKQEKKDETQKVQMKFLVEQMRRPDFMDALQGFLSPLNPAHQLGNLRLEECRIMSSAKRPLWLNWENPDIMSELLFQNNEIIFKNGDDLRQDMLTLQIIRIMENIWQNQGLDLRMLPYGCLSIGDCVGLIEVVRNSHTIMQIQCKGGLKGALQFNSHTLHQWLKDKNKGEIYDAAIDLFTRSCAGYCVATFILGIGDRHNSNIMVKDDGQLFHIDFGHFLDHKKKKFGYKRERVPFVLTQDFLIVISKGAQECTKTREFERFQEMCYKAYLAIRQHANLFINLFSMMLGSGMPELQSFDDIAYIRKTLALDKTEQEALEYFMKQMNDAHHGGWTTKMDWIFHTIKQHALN
# Source text: [Determination of IC50 Values of Compounds in Kinase Assay of PI3Kα]
# LABORATORIES (Toronto, Canada). […] [γ^33P]ATP and unlabeled ATP were purchased from […] […] BIOTECH (Buckinghamshire, UK) and ROCHE DIAGNOSTICS (Mannheim, Germany), respectively. Scintillation cocktails and MicroScint PS™ were purchased from PACKARD (Meriden, Conn.). Maxisorp™ plates were purchased from NALGE NUNC INTERNATIONAL K.K. (Tokyo, Japan). All other chemicals not further specified were from WAKO PURE CHEMICALS (Osaka, Japan).
# The plates were subsequently air-dried by incubation for at least 2 hours in a fume hood. The reaction was set up by mixing 25 μL/well of assay buffer 2×(100 mM MOPSO/NaOH, 0.2 M NaCl, pH 7.0, 8 mM MgCl2, 2 mg/mL BSA (fatty acid-free)), and 7.5 ng/well PI3Kα in the lipid pre-coated plate. 100× test compounds were added in 2% DMSO. The reaction was started by adding 20 μL/well of ATP mix (final 10 μM ATP; 0.05 μCi/well [γ^33P]ATP). After incubation at RT for 2 hours, the reaction was terminated by adding 50 μl/well stop solution (50 mM EDTA, pH 8.0). The plate was then washed twice with Tris-buffered saline (TBS, pH 7.4). MicroScint PS™ (PACKARD) scintillation mix was added at 100 μL/well, and radioactivity was counted using a TopCount™ (PACKARD) scintillation counter.
# The inhibition percent at each concentration of compound was calculated, and IC50 values were determined from the inhibition of curve.
# [3] = molecular target: T2, PI3Kβ (Homo sapiens, UniProt P42338); assay: Isozyme selectivity test: kinase assay of PI3Kβ (p110β assay); type: biochemical; conditions: recombinant truncated p110β, 7.5 ng protein/well
# T2 construct: His6 (N); made in house; host or cells: S. frugiperda 9 (Sf9) insect cells
# T2 sequence (P42338 109-1070): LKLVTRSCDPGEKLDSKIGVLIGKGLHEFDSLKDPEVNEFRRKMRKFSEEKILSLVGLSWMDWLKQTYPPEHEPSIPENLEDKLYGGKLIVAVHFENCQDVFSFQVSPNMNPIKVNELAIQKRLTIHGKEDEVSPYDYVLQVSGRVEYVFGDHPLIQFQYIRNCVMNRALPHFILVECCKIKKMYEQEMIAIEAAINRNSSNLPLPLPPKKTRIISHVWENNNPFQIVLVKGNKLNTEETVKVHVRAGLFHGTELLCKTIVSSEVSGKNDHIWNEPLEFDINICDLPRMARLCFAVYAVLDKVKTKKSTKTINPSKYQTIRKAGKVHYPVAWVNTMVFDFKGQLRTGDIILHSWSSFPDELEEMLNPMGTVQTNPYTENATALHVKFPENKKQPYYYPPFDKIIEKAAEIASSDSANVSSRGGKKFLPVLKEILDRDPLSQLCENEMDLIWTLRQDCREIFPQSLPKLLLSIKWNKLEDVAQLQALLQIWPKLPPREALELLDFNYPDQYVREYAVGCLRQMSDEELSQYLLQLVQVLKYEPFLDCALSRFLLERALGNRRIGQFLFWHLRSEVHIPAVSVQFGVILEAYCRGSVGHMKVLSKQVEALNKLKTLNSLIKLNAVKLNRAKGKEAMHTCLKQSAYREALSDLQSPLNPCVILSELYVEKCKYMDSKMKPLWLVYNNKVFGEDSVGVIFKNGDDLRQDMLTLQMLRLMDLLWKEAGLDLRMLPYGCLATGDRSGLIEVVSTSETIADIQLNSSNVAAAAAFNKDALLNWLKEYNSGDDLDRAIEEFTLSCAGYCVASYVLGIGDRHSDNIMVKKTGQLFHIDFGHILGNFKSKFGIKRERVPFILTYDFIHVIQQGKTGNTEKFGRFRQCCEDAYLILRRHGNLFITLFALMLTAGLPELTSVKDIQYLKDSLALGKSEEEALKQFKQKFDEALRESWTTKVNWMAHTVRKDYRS
# Source text: [Isozyme Selectivity Test in PI3K]
# Determination of IC50 Values of Compounds in Kinase Assays of PI3Kβ and PI3Kγ
IC50 [1] [nM],IC50 [2] [nM],IC50 [3] [nM],SMILES
< 100,< 10,< 10,"COCCN1CCOC(CCOc2ccc3c(c2OC)N=C(NC(=O)c2cccnc2)N2CCN=C32)C1 (stereo not drawn) [Example 20, N-(7-methoxy-8-{2-[4-(2-methoxyethyl)morpholin-2-yl]ethoxy}-2,3-dihydroimidazo[1,2-c]quinazolin-5-yl)nicotinamide]"
> 1000,> 100,> 100,"COc1c(OCCCN2CCOCC2)ccc2c1N=C(NC(=O)c1ccncn1)N1CCN=C21 [Example 24, N-[7-methoxy-8-(3-morpholin-4-ylpropoxy)-2,3-dihydroimidazo[1,2-c]quinazolin-5-yl]pyrimidine-4-carboxamide]"
> 1000,10 to 100,10 to 100,"COc1c(OCCCN2CCOCC2)ccc2c1N=C(NC(=O)c1ccnc(N)n1)N1CCN=C21 [Example 25, 2-amino-N-[7-methoxy-8-(3-morpholin-4-ylpropoxy)-2,3-dihydroimidazo[1,2-c]quinazolin-5-yl]pyrimidine-4-carboxamide]"
< 100,< 10,< 10,"COc1c(OCCCN2C[C@@H](C)O[C@@H](C)C2)ccc2c1N=C(NC(=O)c1ccc(C)nc1)N1CCN=C21 [Example 28, rel-N-(8-{3-[(2R,6S)-2,6-dimethylmorpholin-4-yl]propoxy}-7-methoxy-2,3-dihydroimidazo[1,2-c]quinazolin-5-yl)-6-methylnicotinamide]"
< 100,< 10,< 10,"COc1c(OCCCN2C[C@@H](C)O[C@@H](C)C2)ccc2c1N=C(NC(=O)c1cnc(N)nc1)N1CCN=C21 [Example 38, rel-2-amino-N-(8-{3-[(2R,6S)-2,6-dimethylmorpholin-4-yl]propoxy}-7-methoxy-2,3-dihydroimidazo[1,2-c]quinazolin-5-yl)pyrimidine-5-carboxamide]"
< 100,< 10,< 10,"COc1c(OCCCN2C[C@@H](C)O[C@@H](C)C2)ccc2c1N=C(NC(=O)c1ccc(N)nc1)N1CCN=C21 [Example 39, rel-6-amino-N-(8-{3-[(2R,6S)-2,6-dimethylmorpholin-4-yl]propoxy}-7-methoxy-2,3-dihydroimidazo[1,2-c]quinazolin-5-yl)nicotinamide]"
> 1000,10 to 100,10 to 100,"COc1c(OCCCN2CCOCC2)ccc2c1N=C(NC(=O)c1ccc(NCc3ccc(F)cc3)nc1)N1CCN=C21 [Example 53, 6-[(4-fluorobenzyl)amino]-N-[7-methoxy-8-(3-morpholin-4-ylpropoxy)-2,3-dihydroimidazo[1,2-c]quinazolin-5-yl]nicotinamide]"
100 to 1000,10 to 100,10 to 100,"COc1c(OCCCN2CCOCC2)ccc2c1N=C(NC(=O)c1ccc(N3CCOCC3)nc1)N1CCN=C21 [Example 57, N-[7-methoxy-8-(3-morpholin-4-ylpropoxy)-2,3-dihydroimidazo[1,2-c]quinazolin-5-yl]-6-morpholin-4-ylnicotinamide]"
> 1000,> 100,> 100,"COc1c(OCCCN2CCOCC2)ccc2c1N=C(NC(=O)c1ccc(NC(=O)C(C)(C)C)nc1)N1CCN=C21 [Example 59, 6-[(2,2-dimethylpropanoyl)amino]-N-[7-methoxy-8-(3-morpholin-4-ylpropoxy)-2,3-dihydroimidazo[1,2-c]quinazolin-5-yl]nicotinamide]"

# The remaining lines, values behind:
SMILES,IC50 [1] [nM],IC50 [2] [nM],IC50 [3] [nM]
"CCN1CCOC(COc2ccc3c(c2OC)N=C(NC(=O)c2cccnc2)N2CCN=C32)C1 (stereo not drawn) [Example 21, N-{8-[(4-ethylmorpholin-2-yl)methoxy]-7-methoxy-2,3-dihydroimidazo[1,2-c]quinazolin-5-yl}nicotinamide]",< 100,10 to 100,10 to 100
"COc1c(OCCCN2CCOCC2)ccc2c1N=C(NC(=O)c1cn(C)cn1)N1CCN=C21 [Example 26, N-[7-methoxy-8-(3-morpholin-4-ylpropoxy)-2,3-dihydroimidazo[1,2-c]quinazolin-5-yl]-1-methyl-1H-imidazole-4-carboxamide]",> 1000,10 to 100,10 to 100
"COc1c(OCCCN2C[C@@H](C)O[C@@H](C)C2)ccc2c1N=C(NC(=O)c1cncnc1)N1CCN=C21 [Example 27, rel-N-(8-{3-[(2R,6S)-2,6-dimethylmorpholin-4-yl]propoxy}-7-methoxy-2,3-dihydroimidazo[1,2-c]quinazolin-5-yl)pyrimidine-5-carboxamide]",< 100,< 10,< 10
"COc1c(OCCCN2C[C@@H](C)O[C@@H](C)C2)ccc2c1N=C(NC(=O)c1ccc(NC(C)=O)nc1)N1CCN=C21 [Example 29, rel-6-acetamido-N-(8-{3-[(2R,6S)-2,6-dimethylmorpholin-4-yl]propoxy}-7-methoxy-2,3-dihydroimidazo[1,2-c]quinazolin-5-yl)nicotinamide]",< 100,< 10,< 10
"COCCCNc1ncc(C(=O)NC2=Nc3c(ccc(OCCCN4CCOCC4)c3OC)C3=NCCN23)cn1 [Example 41, N-[7-methoxy-8-(3-morpholin-4-ylpropoxy)-2,3-dihydroimidazo[1,2-c]quinazolin-5-yl]-2-[(3-methoxypropyl)amino]pyrimidine-5-carboxamide]",100 to 1000,10 to 100,10 to 100
"COc1c(OCCCN2CCOCC2)ccc2c1N=C(NC(=O)c1cnc(NCCCN3CCOCC3)nc1)N1CCN=C21 [Example 43, N-[7-methoxy-8-(3-morpholin-4-ylpropoxy)-2,3-dihydroimidazo[1,2-c]quinazolin-5-yl]-2-[(3-morpholin-4-ylpropyl)amino]pyrimidine-5-carboxamide]",> 1000,10 to 100,10 to 100
"COc1c(OCCCN2CCOCC2)ccc2c1N=C(NC(=O)c1cnc(N3CCCC3)nc1)N1CCN=C21 [Example 47, N-[7-methoxy-8-(3-morpholin-4-ylpropoxy)-2,3-dihydroimidazo[1,2-c]quinazolin-5-yl]-2-pyrrolidin-1-ylpyrimidine-5-carboxamide]",< 100,10 to 100,10 to 100
"COc1c(OCCCN2CCOCC2)ccc2c1N=C(NC(=O)c1cnc(N3CCN(C)CC3)nc1)N1CCN=C21 [Example 48, N-[7-methoxy-8-(3-morpholin-4-ylpropoxy)-2,3-dihydroimidazo[1,2-c]quinazolin-5-yl]-2-(4-methylpiperazin-1-yl)pyrimidine-5-carboxamide]",> 1000,> 100,> 100
"COc1c(OCCCN2CCOCC2)ccc2c1N=C(NC(=O)c1ccc(N3CCNCC3)nc1)N1CCN=C21 [Example 50, N-[7-methoxy-8-(3-morpholin-4-ylpropoxy)-2,3-dihydroimidazo[1,2-c]quinazolin-5-yl]-6-piperazin-1-ylnicotinamide hydrochloride]",> 1000,10 to 100,10 to 100
"COc1c(OCCCN2CCOCC2)ccc2c1N=C(NC(=O)c1ccc(-n3cccc3)nc1)N1CCN=C21 [Example 56, N-[7-methoxy-8-(3-morpholin-4-ylpropoxy)-2,3-dihydroimidazo[1,2-c]quinazolin-5-yl]-6-(1H-pyrrol-1-yl)nicotinamide]",> 1000,10 to 100,10 to 100
